Experiments:
[1] = target: T1, human GPR40 (Homo sapiens, UniProt O14842); experiment: GPR40 calcium flux assay, HEK293 cells stably expressing human GPR40; assay type: cell-based; conditions: transfected HEK293 cells stably expressing human GPR40, Fluo 8 dye, read-out: hGPR40 Ca2+ Assay EC50
T1 construct: expressed in transfected cells

[2] = target: T2, rat GPR40 (Rattus norvegicus, UniProt Q8K3T4); experiment: GPR40 calcium flux assay, HEK293 cells stably expressing rat GPR40; assay type: cell-based; conditions: transfected HEK293 cells stably expressing rat GPR40, Fluo 8 dye, read-out: rGPR40 Ca2+ Assay EC50
T2 construct: expressed in transfected cells

[3] = system: Male ZDF rats; experiment: Oral Glucose Tolerance Test, Version B; assay type: in vivo, rat; conditions: Assay Version B: fasted male ZDF rats, compound 10 mg/kg 120 min prior to OGTT (glucose 1 g/kg po); blood glucose AUC t=0 to 120 min vs vehicle
Protocol: Male ZDF rats (7 weeks old, 200-240 g) were housed 2 per cage in a temperature-controlled room with a 12-hour light/dark cycle. They were allowed ad libitum access to water and fed with 5008 rodent chow. The night before the oral glucose tolerance test (OGTT), the rats were transferred to clean cages and fasted overnight. On the morning of the OGTT, the rats were weighed and randomized into groups based on fasted blood glucose and body weight. Rats were dosed with vehicle (0.5% Methocel) or compound (10 mg/kg) 120 min prior to the OGTT (glucose, 1 g/kg, po). Blood was collected from the tail vein at 0, 10, 30, 60 and 120 minutes after glucose challenge to measure blood glucose; plasma was used to determine insulin levels. The area under the curve for blood glucose excursion was calculated from t=0 to t=120 minutes. Percent lowering of glucose was calculated from the AUC data with respect to the vehicle-treated group.

[4] = system: Male SD rats; experiment: Oral Glucose Tolerance Test, Version A; assay type: in vivo, rat; conditions: Assay Version A: fasted male SD rats, dosed 30 min prior to oGTT (glucose 2 g/kg po); blood glucose AUC t=0 to 120 min vs vehicle
Protocol: Male SD rats (200-250 g) were housed 2 per cage in a temperature-controlled room with a 12-hour light/dark cycle. They were allowed ad libitum access to water and fed with normal rodent chow. The night before the oral glucose tolerance test (oGTT), the rats were transferred to clean cages and fasted overnight. On the morning of the oGTT, the rats were weighed and randomized into groups based on fasted blood glucose and body weight. Rats were dosed with vehicle (0.5% methocel) or compounds thirty min prior to the oGTT (glucose, 2 g/kg, po). Blood was collected from the tail vein at 0, 10, 30, 60 and 120 minutes after glucose challenge to measure blood glucose; plasma was used to determine insulin levels. The area under the curve for blood glucose excursion was calculated from t=0 to t=120 minutes. Percent lowering of glucose was calculated from the AUC data with respect to the vehicle-treated group.

T2 sequence (Q8K3T4 whole entry): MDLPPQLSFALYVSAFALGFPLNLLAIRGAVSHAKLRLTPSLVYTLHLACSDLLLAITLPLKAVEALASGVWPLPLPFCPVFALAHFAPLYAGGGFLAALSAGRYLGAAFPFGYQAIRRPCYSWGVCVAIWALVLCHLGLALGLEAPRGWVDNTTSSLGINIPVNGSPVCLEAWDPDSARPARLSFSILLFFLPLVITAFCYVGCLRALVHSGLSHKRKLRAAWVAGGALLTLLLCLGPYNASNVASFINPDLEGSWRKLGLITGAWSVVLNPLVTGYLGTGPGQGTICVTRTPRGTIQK
T1 sequence (O14842 whole entry): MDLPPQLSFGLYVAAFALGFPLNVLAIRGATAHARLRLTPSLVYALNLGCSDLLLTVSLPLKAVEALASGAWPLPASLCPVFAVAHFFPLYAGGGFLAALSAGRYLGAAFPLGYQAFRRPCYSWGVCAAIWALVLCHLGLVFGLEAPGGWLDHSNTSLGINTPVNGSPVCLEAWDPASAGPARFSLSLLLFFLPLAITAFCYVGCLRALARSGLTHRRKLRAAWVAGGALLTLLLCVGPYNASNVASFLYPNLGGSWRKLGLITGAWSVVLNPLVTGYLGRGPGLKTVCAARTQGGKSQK

Compound | EC50 [1] | EC50 [2] | Percent Lowering of Glucose (AUC compound vs. AUC Vehicle) [3] | Percent Lowering of Glucose (AUC compound vs. AUC Vehicle) [4]
COc1cc([C@H]2CC[C@H](COc3cc([C@@H](CC(=O)O)C4CC4)ccn3)CC2)c(F)cn1 [Cpd 25, (S)-3-Cyclopropyl-3-(2-(((1r,4S)-4-(5-fluoro-2-methoxypyridin-4-yl)cyclohexyl)methoxy)pyridin-4-yl)propanoic acid] | 5.3 nM | 1.3 nM |  | 28%
COc1ccc(F)c([C@H]2CC[C@H](COc3cc([C@@H](CC(=O)O)C4CC4)ccn3)CC2)c1 [Cpd 27, (S)-3-Cyclopropyl-3-(2-(((1r,4s)-4-(2-fluoro-5-methoxyphenyl)cyclohexyl)methoxy)pyridin-4-yl)propanoic acid] | 0.2 nM | 0.9 nM |  | 32%
COc1ccc(F)c([C@H]2CC[C@H](/C=C/c3cccc([C@@H](CC(=O)O)C4CC4)c3)CC2)c1 [Cpd 28, (S)-3-cyclopropyl-3-(3-((E)-2-((1r,4S)-4-(2-fluoro-5-methoxyphenyl)cyclohexyl)vinyl)phenyl)propanoic acid] | 2.6 nM | 6.1 nM |  | 

The next lines start with results.

EC50 [1] | EC50 [2] | Compound | Percent Lowering of Glucose (AUC compound vs. AUC Vehicle) [3] | Percent Lowering of Glucose (AUC compound vs. AUC Vehicle) [4]
0.27 nM | 0.72 nM | COc1ccc(F)c([C@H]2CC[C@H](COc3cccc([C@H](C4CC4)[C@@](C)(F)C(=O)O)c3)CC2)c1 [Cpd 59, (2R,3S)-3-Cyclopropyl-2-fluoro-3-(3-(((1r,4S)-4-(2-fluoro-5-methoxyphenyl)cyclohexyl)methoxy)phenyl)-2-methylpropanoic acid] | 48% | 
36.2 nM | 105 nM | COc1ccc(F)c([C@H]2CC[C@@H](COc3cccc([C@@H](CC(=O)O)C4CC4)c3)CC2)c1 [Cpd 1, (S)-3-Cyclopropyl-3-(3-(((1s,4R)-4-(2-fluoro-5-methoxyphenyl)cyclohexyl)methoxy)phenyl) propanoic acid] |  | 11%
0.8 nM | 3.4 nM | COc1ccc(F)c([C@H]2CC[C@H](COc3cccc([C@@H](CC(=O)O)C4CC4)c3)CC2)c1 [Cpd 2, (S)-3-Cyclopropyl-3-(3-(((1r,4 S)-4-(2-fluoro-5-methoxyphenyl)cyclohexyl)methoxy)phenyl) propanoic acid] |  | 33%
0.44 nM | 8.93 nM | C[C@](F)(C(=O)O)[C@H](c1cccc(OCC2CCC(c3cc(F)ccc3F)CC2)c1)C1CC1 (stereo partly drawn) [Cpd 75, (2R,3S)-3-Cyclopropyl-3-(3-((4-(2,5-difluorophenyl)cyclohexyl)methoxy)phenyl)-2-fluoro-2-methylpropanoic acid] |  | 
